PMC7827406, “Structure–Activity Relationship (SAR) Study of Spautin-1 to Entail the Discovery of Novel NEK4 Inhibitors” (International Journal of Molecular Sciences, 2021)
Where two headings read alike, the source gives them in different places.

What was measured:
Assay in all cases: biochemical
Design in all cases: Eurofins KinaseProfiler full panel at Km ATP, residual kinase activity (%) relative to DMSO
ATM(h) = ATM(h) (Homo sapiens, UniProt Q13315)
How it was run: (§1)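 Radiometric kinase activity assays were run with ATP at Km and compounds at 10 µM, and remaining activity (%) was reported. A separate competitive binding screen measured DNA-tagged kinase displaced from immobilized active-site ligands by qPCR, giving percent kinase still bound at 10 µM compound in DMSO.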

CDK2/cyclinE(h) = CDK2/cyclinE(h) (Homo sapiens, UniProt P24941)
How it was run: as §1

DYRK2(h) = target: T1, DYRK2(h) (Homo sapiens, UniProt Q92630)
T1 sequence (Q92630 1-601): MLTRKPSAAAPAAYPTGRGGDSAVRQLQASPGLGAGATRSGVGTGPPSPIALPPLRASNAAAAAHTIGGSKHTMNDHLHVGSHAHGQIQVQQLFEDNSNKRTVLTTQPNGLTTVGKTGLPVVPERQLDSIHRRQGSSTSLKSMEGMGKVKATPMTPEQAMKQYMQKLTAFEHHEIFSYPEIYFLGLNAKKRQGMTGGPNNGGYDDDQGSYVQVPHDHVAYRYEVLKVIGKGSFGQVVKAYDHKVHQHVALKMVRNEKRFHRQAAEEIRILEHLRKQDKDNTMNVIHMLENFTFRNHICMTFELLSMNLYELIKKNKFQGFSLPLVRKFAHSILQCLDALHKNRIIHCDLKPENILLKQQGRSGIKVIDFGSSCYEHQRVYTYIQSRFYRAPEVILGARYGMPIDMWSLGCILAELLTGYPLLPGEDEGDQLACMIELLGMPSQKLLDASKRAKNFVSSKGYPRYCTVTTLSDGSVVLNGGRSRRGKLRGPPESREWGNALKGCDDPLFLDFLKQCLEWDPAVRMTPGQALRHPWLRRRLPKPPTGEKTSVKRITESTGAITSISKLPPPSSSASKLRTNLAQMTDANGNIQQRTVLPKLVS
How it was run: as §1

EphB4(h) = target: T2, EphB4(h) (Homo sapiens, UniProt P54760)
T2 sequence (P54760 1-987): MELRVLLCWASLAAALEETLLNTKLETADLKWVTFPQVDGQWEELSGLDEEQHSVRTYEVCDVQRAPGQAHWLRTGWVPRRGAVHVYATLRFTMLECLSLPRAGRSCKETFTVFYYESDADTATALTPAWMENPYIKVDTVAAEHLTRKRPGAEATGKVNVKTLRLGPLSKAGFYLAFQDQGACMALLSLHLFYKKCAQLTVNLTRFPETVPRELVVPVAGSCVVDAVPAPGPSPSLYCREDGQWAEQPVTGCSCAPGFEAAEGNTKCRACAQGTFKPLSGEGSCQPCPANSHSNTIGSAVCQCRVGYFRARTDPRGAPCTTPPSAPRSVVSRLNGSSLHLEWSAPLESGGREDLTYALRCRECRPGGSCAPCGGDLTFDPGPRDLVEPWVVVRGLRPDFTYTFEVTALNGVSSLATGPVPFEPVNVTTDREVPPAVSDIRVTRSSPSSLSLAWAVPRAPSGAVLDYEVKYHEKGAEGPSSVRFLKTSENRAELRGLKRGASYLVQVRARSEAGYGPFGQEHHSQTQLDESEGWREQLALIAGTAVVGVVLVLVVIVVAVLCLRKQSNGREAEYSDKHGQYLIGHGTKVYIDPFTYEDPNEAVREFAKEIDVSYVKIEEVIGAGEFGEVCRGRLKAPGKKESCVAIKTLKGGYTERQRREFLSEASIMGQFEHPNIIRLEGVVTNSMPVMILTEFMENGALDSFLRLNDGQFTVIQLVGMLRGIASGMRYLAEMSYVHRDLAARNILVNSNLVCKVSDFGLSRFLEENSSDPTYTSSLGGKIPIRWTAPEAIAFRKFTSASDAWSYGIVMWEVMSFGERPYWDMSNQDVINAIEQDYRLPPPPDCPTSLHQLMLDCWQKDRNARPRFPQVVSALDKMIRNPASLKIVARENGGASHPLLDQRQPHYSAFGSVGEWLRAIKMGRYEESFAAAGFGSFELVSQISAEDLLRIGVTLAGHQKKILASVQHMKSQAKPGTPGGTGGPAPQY
How it was run: as §1

IRE1(h) = target: T3, IRE1(h) (Homo sapiens, UniProt O75460)
T3 construct: gene ERN1
How it was run: as §1

MEK2(h) = target: T4, MEK2(h) (Homo sapiens, UniProt P36507)
T4 construct: gene MAP2K2
How it was run: as §1

NIM1(h) = target: T5, NIM1(h) (Homo sapiens, UniProt Q8IY84)
T5 construct: gene NIM1K
How it was run: as §1

[1] = target: T6, PI3 Kinase (p110b/p85a)(h) (Homo sapiens, UniProt P42338)
T6 construct: gene PIK3CB
How it was run: as §1

ZIPK(h) = target: T7, ZIPK(h) (Homo sapiens, UniProt O43293)
T7 construct: gene DAPK3
How it was run: as §1

[2] = read-out: Residual activity (%) 5at
[3] = read-out: Residual activity (%) 5as
[4] = read-out: Residual activity (%) 5ay
[5] = read-out: Residual activity (%) Spautin-1 5aa

T3 sequence (O75460 whole entry): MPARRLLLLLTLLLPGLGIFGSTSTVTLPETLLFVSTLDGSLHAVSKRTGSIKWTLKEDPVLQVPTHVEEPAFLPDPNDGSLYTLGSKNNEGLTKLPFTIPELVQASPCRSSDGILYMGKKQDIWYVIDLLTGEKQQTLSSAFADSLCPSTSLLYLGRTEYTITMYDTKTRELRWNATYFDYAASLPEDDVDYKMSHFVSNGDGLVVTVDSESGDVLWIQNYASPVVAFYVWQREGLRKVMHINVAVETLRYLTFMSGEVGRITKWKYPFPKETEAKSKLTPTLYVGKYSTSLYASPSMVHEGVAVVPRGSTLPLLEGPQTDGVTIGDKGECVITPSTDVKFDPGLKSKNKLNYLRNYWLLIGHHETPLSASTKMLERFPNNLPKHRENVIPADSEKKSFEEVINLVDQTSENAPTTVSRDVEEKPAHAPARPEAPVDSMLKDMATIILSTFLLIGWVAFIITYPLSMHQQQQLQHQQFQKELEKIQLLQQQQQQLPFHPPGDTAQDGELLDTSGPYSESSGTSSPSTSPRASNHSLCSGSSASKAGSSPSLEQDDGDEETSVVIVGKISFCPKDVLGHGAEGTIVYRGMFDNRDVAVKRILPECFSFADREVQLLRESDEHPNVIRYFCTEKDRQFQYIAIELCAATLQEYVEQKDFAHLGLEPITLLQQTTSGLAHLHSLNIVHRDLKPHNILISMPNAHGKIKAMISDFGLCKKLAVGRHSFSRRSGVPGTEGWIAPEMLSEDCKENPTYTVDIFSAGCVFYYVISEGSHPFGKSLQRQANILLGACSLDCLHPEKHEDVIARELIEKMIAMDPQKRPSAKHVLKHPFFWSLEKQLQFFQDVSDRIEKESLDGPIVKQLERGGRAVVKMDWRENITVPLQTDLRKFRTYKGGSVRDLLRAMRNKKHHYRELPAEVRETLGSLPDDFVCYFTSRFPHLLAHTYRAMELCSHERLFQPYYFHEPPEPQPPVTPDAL
T6 sequence (P42338 whole entry): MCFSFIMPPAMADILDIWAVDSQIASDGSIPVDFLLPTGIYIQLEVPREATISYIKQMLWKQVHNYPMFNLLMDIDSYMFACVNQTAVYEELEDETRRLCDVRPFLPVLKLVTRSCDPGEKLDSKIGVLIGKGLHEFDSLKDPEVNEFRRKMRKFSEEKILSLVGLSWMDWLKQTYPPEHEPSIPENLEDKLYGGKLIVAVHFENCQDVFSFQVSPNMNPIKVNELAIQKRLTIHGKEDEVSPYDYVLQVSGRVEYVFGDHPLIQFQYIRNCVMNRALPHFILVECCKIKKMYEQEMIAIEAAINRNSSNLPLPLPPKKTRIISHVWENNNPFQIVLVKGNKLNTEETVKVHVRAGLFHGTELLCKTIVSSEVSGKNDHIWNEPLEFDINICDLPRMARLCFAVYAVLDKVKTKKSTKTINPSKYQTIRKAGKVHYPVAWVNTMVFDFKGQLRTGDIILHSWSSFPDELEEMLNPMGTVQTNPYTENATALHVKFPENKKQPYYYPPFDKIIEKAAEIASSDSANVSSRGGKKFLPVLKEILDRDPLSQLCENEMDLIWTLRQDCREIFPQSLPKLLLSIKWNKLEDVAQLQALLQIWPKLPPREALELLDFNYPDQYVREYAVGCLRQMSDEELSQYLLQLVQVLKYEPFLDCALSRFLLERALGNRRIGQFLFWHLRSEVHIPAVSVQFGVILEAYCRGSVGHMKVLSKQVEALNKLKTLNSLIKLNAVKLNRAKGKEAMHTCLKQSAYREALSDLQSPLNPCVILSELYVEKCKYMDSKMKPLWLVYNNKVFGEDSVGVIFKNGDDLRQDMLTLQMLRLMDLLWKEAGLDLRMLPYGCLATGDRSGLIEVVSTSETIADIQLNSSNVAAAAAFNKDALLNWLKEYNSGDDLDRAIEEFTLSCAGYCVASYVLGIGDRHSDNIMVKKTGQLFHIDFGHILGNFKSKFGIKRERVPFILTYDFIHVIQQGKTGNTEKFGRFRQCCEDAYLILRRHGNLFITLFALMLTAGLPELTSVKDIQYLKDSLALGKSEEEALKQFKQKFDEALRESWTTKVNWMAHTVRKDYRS
T6 sequence (P27986 whole entry partner): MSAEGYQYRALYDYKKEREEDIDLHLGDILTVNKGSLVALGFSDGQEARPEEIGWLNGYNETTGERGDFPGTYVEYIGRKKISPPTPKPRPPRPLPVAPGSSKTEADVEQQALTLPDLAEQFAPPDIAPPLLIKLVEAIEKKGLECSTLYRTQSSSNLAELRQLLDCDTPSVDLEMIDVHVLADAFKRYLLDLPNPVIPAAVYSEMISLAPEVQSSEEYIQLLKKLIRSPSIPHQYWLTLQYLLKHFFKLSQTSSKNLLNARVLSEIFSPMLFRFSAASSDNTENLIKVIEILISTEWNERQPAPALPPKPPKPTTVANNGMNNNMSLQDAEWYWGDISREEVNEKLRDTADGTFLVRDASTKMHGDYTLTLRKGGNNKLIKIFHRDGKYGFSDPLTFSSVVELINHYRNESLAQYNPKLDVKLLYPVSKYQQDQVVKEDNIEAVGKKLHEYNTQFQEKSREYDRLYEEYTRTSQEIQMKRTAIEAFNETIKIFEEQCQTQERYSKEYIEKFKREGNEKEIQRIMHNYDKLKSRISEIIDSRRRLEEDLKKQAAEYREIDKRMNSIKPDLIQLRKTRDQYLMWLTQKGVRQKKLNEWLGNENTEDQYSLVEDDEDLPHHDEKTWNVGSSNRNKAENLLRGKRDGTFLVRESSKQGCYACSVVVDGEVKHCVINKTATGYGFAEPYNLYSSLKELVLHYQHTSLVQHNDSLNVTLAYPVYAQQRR
T5 sequence (Q8IY84 whole entry): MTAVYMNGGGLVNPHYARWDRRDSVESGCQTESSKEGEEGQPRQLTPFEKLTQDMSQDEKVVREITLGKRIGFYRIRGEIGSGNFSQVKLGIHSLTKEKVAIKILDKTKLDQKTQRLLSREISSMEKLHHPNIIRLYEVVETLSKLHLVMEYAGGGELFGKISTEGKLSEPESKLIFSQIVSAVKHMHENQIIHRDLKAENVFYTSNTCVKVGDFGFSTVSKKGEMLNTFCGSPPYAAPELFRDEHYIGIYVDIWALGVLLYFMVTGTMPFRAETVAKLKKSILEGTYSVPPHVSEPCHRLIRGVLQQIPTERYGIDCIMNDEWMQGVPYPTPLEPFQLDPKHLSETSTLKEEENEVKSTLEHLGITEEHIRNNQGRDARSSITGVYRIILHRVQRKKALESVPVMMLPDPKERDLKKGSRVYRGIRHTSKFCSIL
T4 sequence (P36507 whole entry): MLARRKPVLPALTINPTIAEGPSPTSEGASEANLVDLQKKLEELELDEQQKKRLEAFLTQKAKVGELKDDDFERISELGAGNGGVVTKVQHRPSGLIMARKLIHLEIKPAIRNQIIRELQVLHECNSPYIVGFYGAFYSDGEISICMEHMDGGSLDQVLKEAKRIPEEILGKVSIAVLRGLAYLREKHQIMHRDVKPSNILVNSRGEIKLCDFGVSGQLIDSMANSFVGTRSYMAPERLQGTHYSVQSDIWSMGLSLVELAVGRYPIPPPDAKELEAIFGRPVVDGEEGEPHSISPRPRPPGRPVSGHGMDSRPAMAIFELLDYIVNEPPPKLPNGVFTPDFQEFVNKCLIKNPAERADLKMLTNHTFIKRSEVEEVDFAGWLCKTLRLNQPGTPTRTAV
T7 sequence (O43293 whole entry): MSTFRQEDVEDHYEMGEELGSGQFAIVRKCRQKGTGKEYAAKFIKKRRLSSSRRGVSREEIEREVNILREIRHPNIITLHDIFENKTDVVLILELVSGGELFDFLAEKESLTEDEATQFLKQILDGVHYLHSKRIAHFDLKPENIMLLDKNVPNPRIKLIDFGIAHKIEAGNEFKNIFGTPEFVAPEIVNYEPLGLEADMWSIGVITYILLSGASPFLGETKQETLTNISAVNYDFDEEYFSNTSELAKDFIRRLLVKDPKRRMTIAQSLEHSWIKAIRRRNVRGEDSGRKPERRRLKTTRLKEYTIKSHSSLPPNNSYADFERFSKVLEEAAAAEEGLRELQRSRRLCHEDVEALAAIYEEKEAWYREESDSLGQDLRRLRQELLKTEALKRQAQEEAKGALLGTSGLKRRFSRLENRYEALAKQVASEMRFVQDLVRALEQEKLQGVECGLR

With `Fc1ccc2ncnc(NCCc3ccc(Cl)cc3)c2c1` [5at, N-[2-(4-Chlorophenyl)Ethyl]-6-Fluoro-4-Quinazolinamine] as the compound, how does the remaining activity at 10 µM (ATM(h); [2]) read?
Its remaining activity at 10 µM is 86%.

And the remaining activity at 10 µM (CDK2/cyclinE(h); [2])?
The remaining activity at 10 µM was 54%.

And the remaining activity at 10 µM (DYRK2(h); [2])?
The remaining activity at 10 µM was 103%.

And the remaining activity at 10 µM (EphB4(h); [2])?
Its remaining activity at 10 µM is 68%.

What about the remaining activity at 10 µM (IRE1(h); [2]) of the same compound?
The remaining activity at 10 µM was 88%.

And the remaining activity at 10 µM (MEK2(h); [2])?
The remaining activity at 10 µM was 99%.

What about the remaining activity at 10 µM (NIM1(h); [2]) of the same compound?
The remaining activity at 10 µM was 110%.

What about the remaining activity at 10 µM [1, 2] of the same compound?
The remaining activity at 10 µM was 93%.

And the remaining activity at 10 µM (ZIPK(h); [2])?
Its remaining activity at 10 µM is 109%.

For `Fc1ccc(CCNc2ncnc3ccc(F)cc23)cc1` [5as, 6-Fluoro-N-[2-(4-Fluorophenyl)Ethyl]-4-Quinazolinamine], which remaining activity at 10 µM (ATM(h); [3]) is on record?
Its remaining activity at 10 µM is 88%.

And the remaining activity at 10 µM (CDK2/cyclinE(h); [3])?
Its remaining activity at 10 µM is 103%.

And the remaining activity at 10 µM (DYRK2(h); [3])?
The remaining activity at 10 µM was 100%.

What about the remaining activity at 10 µM (EphB4(h); [3]) of the same compound?
Its remaining activity at 10 µM is 59%.

And the remaining activity at 10 µM (IRE1(h); [3])?
The remaining activity at 10 µM was 89%.

And the remaining activity at 10 µM (MEK2(h); [3])?
The remaining activity at 10 µM was 96%.

And the remaining activity at 10 µM (NIM1(h); [3])?
Its remaining activity at 10 µM is 113%.

What about the remaining activity at 10 µM [1, 3] of the same compound?
Its remaining activity at 10 µM is 99%.

What about the remaining activity at 10 µM (ZIPK(h); [3]) of the same compound?
The remaining activity at 10 µM was 103%.

How did the remaining activity at 10 µM (ATM(h); [4]) turn out when `COc1ccc2ncnc(Nc3cccc(F)c3)c2c1` [5ay, N-(3-Fluorophenyl)-6-Methoxy-4-Quinazolinamine] was run?
Its remaining activity at 10 µM is 90%.

And the remaining activity at 10 µM (CDK2/cyclinE(h); [4])?
The remaining activity at 10 µM was 89%.

What about the remaining activity at 10 µM (DYRK2(h); [4]) of the same compound?
Its remaining activity at 10 µM is 64%.

And the remaining activity at 10 µM (EphB4(h); [4])?
The remaining activity at 10 µM was 63%.

What about the remaining activity at 10 µM (IRE1(h); [4]) of the same compound?
Its remaining activity at 10 µM is 83%.

And the remaining activity at 10 µM (MEK2(h); [4])?
Its remaining activity at 10 µM is 95%.

And the remaining activity at 10 µM (NIM1(h); [4])?
The remaining activity at 10 µM was 97%.

What about the remaining activity at 10 µM [1, 4] of the same compound?
Its remaining activity at 10 µM is 103%.

And the remaining activity at 10 µM (ZIPK(h); [4])?
The remaining activity at 10 µM was 108%.

With `Fc1ccc(CNc2ncnc3ccc(F)cc23)cc1` [5aa, 6-Fluoro-N-(4-fluorobenzyl)-4-Quinazolinamine] as the compound, how does the remaining activity at 10 µM (ATM(h); [5]) read?
The remaining activity at 10 µM was 93%.

What about the remaining activity at 10 µM (CDK2/cyclinE(h); [5]) of the same compound?
The remaining activity at 10 µM was 69%.

And the remaining activity at 10 µM (DYRK2(h); [5])?
The remaining activity at 10 µM was 99%.

What about the remaining activity at 10 µM (EphB4(h); [5]) of the same compound?
Its remaining activity at 10 µM is 68%.

And the remaining activity at 10 µM (IRE1(h); [5])?
The remaining activity at 10 µM was 99%.

And the remaining activity at 10 µM (MEK2(h); [5])?
The remaining activity at 10 µM was 92%.

And the remaining activity at 10 µM (NIM1(h); [5])?
Its remaining activity at 10 µM is 108%.

And the remaining activity at 10 µM [1, 5]?
Its remaining activity at 10 µM is 102%.

What about the remaining activity at 10 µM (ZIPK(h); [5]) of the same compound?
The remaining activity at 10 µM was 97%.
